Measurements published in ChEMBL document CHEMBL1201862, “PubChem BioAssay data set” (2004).
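Five concentrations, 48 hours, 96-well plates. GI50 is the concentration that inhibits growth by half.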 Active and inactive are the calls of the source. No stated cut-off is given here; in the data, active = GI50 up to about 1.1 µM and inactive = higher.

Columns and labels:
Assay in all cases: DTP human tumour cell line panel, 48 h
786-0 = test system: 786-0
A498 = test system: A498
ACHN = test system: ACHN
BT-549 = test system: BT-549
CAKI-1 = test system: CAKI-1
CCRF-CEM = test system: CCRF-CEM
COLO 205 = test system: COLO 205
DU-145 = test system: DU-145
EKVX = test system: EKVX
HCC 2998 = test system: HCC 2998
HCT-116 = test system: HCT-116
HCT-15 = test system: HCT-15
HL-60 = test system: HL-60
HOP-62 = test system: HOP-62
HOP-92 = test system: HOP-92
HT-29 = test system: HT-29
Hs-578T = test system: Hs-578T
IGROV-1 = test system: IGROV-1
K562 = test system: K562
KM12 = test system: KM12
LOX IMVI = test system: LOX IMVI
M14 = test system: M14
MCF7 = test system: MCF7
MDA-MB-231 = test system: MDA-MB-231
MDA-MB-435 = test system: MDA-MB-435
MOLT-4 = test system: MOLT-4
NCI-H226 = test system: NCI-H226
NCI-H23 = test system: NCI-H23
NCI-H460 = test system: NCI-H460
NCI/ADR-RES = test system: NCI/ADR-RES
OVCAR-4 = test system: OVCAR-4
OVCAR-8 = test system: OVCAR-8
PC-3 = test system: PC-3
RPMI-8226 = test system: RPMI-8226
RXF 393 = test system: RXF 393
SF-268 = test system: SF-268
SF-295 = test system: SF-295
SF-539 = test system: SF-539
SK-MEL-28 = test system: SK-MEL-28
SK-MEL-2 = test system: SK-MEL-2
SK-MEL-5 = test system: SK-MEL-5
SK-OV-3 = test system: SK-OV-3
SNB-19 = test system: SNB-19
SNB-75 = test system: SNB-75
SR = test system: SR
SW-620 = test system: SW-620
T47D = test system: T47D
TK-10 = test system: TK-10
U-251 = test system: U-251
UACC-257 = test system: UACC-257
UACC-62 = test system: UACC-62
UO-31 = test system: UO-31
A549 = test system: A549
Malme-3M = test system: Malme-3M
OVCAR-3 = test system: OVCAR-3
OVCAR-5 = test system: OVCAR-5
SN12C = test system: SN12C

Measured: GI50

O=C(Nc1ccc(Cl)cc1)c1cc2c(cc1Cl)SC(NNCCO)=NS2(=O)=O
> 100 µM: HCT-15
inactive: 786-0 > 100 µM | A498 17.6 µM | ACHN > 100 µM | BT-549 > 100 µM | CAKI-1 > 100 µM | CCRF-CEM > 100 µM | COLO 205 49.7 µM | DU-145 > 100 µM | EKVX > 100 µM | HCC 2998 > 100 µM | HCT-116 > 100 µM | HL-60 > 100 µM | HOP-62 > 100 µM | HOP-92 92.3 µM | HT-29 > 100 µM | Hs-578T > 100 µM | IGROV-1 > 100 µM | K562 27.9 µM | KM12 > 100 µM | LOX IMVI > 100 µM | M14 > 100 µM | MCF7 98.9 µM | MDA-MB-231 > 100 µM | MDA-MB-435 > 100 µM | MOLT-4 > 100 µM | NCI-H226 > 100 µM | NCI-H23 > 100 µM | NCI-H460 > 100 µM | NCI/ADR-RES > 100 µM | OVCAR-4 > 100 µM | OVCAR-8 > 100 µM | PC-3 > 100 µM | RPMI-8226 > 100 µM | RXF 393 > 100 µM | SF-268 > 100 µM | SF-295 > 100 µM | SF-539 > 100 µM | SK-MEL-28 > 100 µM | SK-MEL-2 > 100 µM | SK-MEL-5 > 100 µM | SK-OV-3 > 100 µM | SNB-19 > 100 µM | SNB-75 > 100 µM | SR > 100 µM | SW-620 > 100 µM | T47D 24.8 µM | TK-10 > 100 µM | U-251 > 100 µM | UACC-257 > 100 µM | UACC-62 > 100 µM | UO-31 > 100 µM

c1ccc2c(c1)ccc1nc3ccccn3c12
inactive: 786-0 > 100 µM | A549 > 100 µM | ACHN > 100 µM | BT-549 > 100 µM | CCRF-CEM > 100 µM | COLO 205 > 100 µM | DU-145 > 100 µM | EKVX 68.5 µM | HCC 2998 > 100 µM | HL-60 > 100 µM | HOP-62 > 100 µM | HOP-92 > 100 µM | HT-29 > 100 µM | Hs-578T 15.3 µM | IGROV-1 > 100 µM | K562 > 100 µM | KM12 > 100 µM | M14 > 100 µM | MCF7 > 100 µM | MDA-MB-435 > 100 µM | MOLT-4 > 100 µM | Malme-3M > 100 µM | NCI-H226 > 100 µM | NCI-H23 > 100 µM | NCI-H460 > 100 µM | NCI/ADR-RES > 100 µM | OVCAR-3 > 100 µM | OVCAR-5 > 100 µM | OVCAR-8 > 100 µM | PC-3 > 100 µM | RPMI-8226 > 100 µM | RXF 393 > 100 µM | SF-268 > 100 µM | SF-295 > 100 µM | SF-539 > 100 µM | SK-MEL-28 > 100 µM | SK-MEL-5 89.7 µM | SK-OV-3 35.2 µM | SN12C > 100 µM | SNB-19 > 100 µM | SNB-75 > 100 µM | SR > 100 µM | SW-620 > 100 µM | T47D > 100 µM | TK-10 > 100 µM | U-251 > 100 µM | UACC-257 > 100 µM | UACC-62 > 100 µM | UO-31 70.6 µM
> 100 µM: HCT-15
